According to PMC9151729, “Experimental solubility and thermodynamic modeling of empagliflozin in supercritical carbon dioxide” (Scientific Reports, 2022):
≈ marks a conversion by molar mass, not a printed value. Like-named read-outs stand apart in the source and are kept apart here. Marks after values point to notes of the source that are not given here.

Legend:
[1] = Solubility of empagliflozin in supercritical carbon dioxide (isobaric-isothermal method, UV-Vis at 276 nm); assay type: physicochemical; details: for solubility thermodynamic at 60 min: supercritical carbon dioxide (ScCO2), thermodynamic from solid, read-out: S (equilibrium solubility) in ScCO2
Method: The detailed discussion of the solubility apparatus and equilibrium cell has been presented in our earlier studies (Fig. 2)[19],[25],[40],[41]. However, a brief description about the apparatus is presented in this section. This method may be classified as an isobaric-isothermal method. Each measurement was carried out with high precision and temperatures and pressures were controlled within ± 0.1 K and ± 0.1 MPa, respectively. For all measurement, 1 g of empagliflozin drug was used. As mentioned in our previous works, the equilibrium was observed within 60 min. After equilibrium, 600 µL saturated ScCO2 sample was collected via 2-status 6-way port valve in a DMSO preloaded vial. After discharging 600 µL saturated ScCO2, the port valve was washed with 1 ml DMSO. Thus, the total saturation solution was 5 ml. Each measurement was repeated thrice and their average values were reported. Mole fraction is obtained as follows:1 y2=ndrug/ndrug+nCO2 where nsolute is the moles number of the drug, and nCO2 is the moles number of CO2 in the sampling loop.
Further, the above quantities are given as:2 nsolute=Cs·Vs/Ms 3 nCO2=V1·ρ/MCO2 where Cs is the drug concentration in saturated sample vial in g/L. The volume of the sampling loop and vial collection are V1(L) = 600 × 10^–6 m^3 and Vs(L) = 5 × 10^–3 m^3, respectively. The Ms and MCO2 are the molecular weight of drug and CO2, respectively. Solubility is also described as4 S=CSVs/V1
The relation between S and y2 is5 S=ρMs/MCO2y2/1-y2
A UV–Visible spectrophotometer (Model UNICO-4802) and DMSO solvent were used for the measurement of empagliflozin solubility. The samples were analyzed at 276 nm.

[2] = Total, sublimation and solvation enthalpies from Chrastil, Reformulated Chrastil and Bartle et al. model correlations of the solubility data; assay type: physicochemical
Text: It is an empirical model and mathematically stated as:7 lny2P/Pref=A2+B2/T+C2ρ-ρref where A2-C2 are model constants. From parameter B2 , one can estimate sublimation enthalpy using the relation, ΔsubH=-B2R , in which R is universal gas constant.
It is a semi-empirical model and mathematically stated as:9 c2=ρ1κexpA4+B4/T where κ,A4andB4 are model constants.
It is a semi-empirical model and mathematically explained as:15 y2=RTρ1/MCFf^·^κ^′-1expA11+B11/T where κ^′,A10andB10 are model constants.
The density-based models considered in this work have different number of adjustable parameters. These parameters range from three to six numbers. The correlating ability of the models is depicted in Figs. 5, 6, 7, 8, 9, 10, 11. From the results, it is clear that all the models are able to correlate the data reasonably well and maximum AARD% is observed to be 10.4%. It is believed that, more parameter models are able to correlate the data more accurately. Sodefian et al., model is able to correlate the data with AARD = 5.84% and Akaike’s information criterion (AIC = − 637.59) (more relevant information is presented in the following section). Among density models, Bian et al., model (five parameters model) is able to correlate the data well and corresponding AARD% is 5.1%. […] Further, Chrastil and Reformulated Chrastil models are able to provide the total enthalpy. Whereas, Bartle et al., model parameters are able to provide sublimation enthalpy of the empagliflozin drug. From the magnitude difference between the total and sublimation enthalpies, a solvation enthalpy is calculated.

[3] = 308 K, 12 MPa, ScCO2 density 769 kg/m^3
[4] = 308 K, 15 MPa, ScCO2 density 817 kg/m^3
[5] = 308 K, 18 MPa, ScCO2 density 849 kg/m^3
[6] = 308 K, 21 MPa, ScCO2 density 875 kg/m^3
[7] = 308 K, 24 MPa, ScCO2 density 896 kg/m^3
[8] = 308 K, 27 MPa, ScCO2 density 914 kg/m^3
[9] = 318 K, 12 MPa, ScCO2 density 661 kg/m^3
[10] = 318 K, 15 MPa, ScCO2 density 744 kg/m^3
[11] = 318 K, 18 MPa, ScCO2 density 791 kg/m^3
[12] = 318 K, 21 MPa, ScCO2 density 824 kg/m^3
[13] = 318 K, 24 MPa, ScCO2 density 851 kg/m^3
[14] = 318 K, 27 MPa, ScCO2 density 872 kg/m^3
[15] = 328 K, 12 MPa, ScCO2 density 509 kg/m^3
[16] = 328 K, 15 MPa, ScCO2 density 656 kg/m^3
[17] = 328 K, 18 MPa, ScCO2 density 725 kg/m^3
[18] = 328 K, 21 MPa, ScCO2 density 769 kg/m^3
[19] = 328 K, 24 MPa, ScCO2 density 802 kg/m^3
[20] = 328 K, 27 MPa, ScCO2 density 829 kg/m^3
[21] = 338 K, 12 MPa, ScCO2 density 388 kg/m^3
[22] = 338 K, 15 MPa, ScCO2 density 557 kg/m^3
[23] = 338 K, 18 MPa, ScCO2 density 652 kg/m^3
[24] = 338 K, 21 MPa, ScCO2 density 710 kg/m^3
[25] = 338 K, 24 MPa, ScCO2 density 751 kg/m^3
[26] = 338 K, 27 MPa, ScCO2 density 783 kg/m^3

## OC[C@H]1O[C@@H](c2ccc(Cl)c(Cc3ccc(O[C@H]4CCOC4)cc3)c2)[C@H](O)[C@@H](O)[C@@H]1O [empagliflozin]
[1]; [3]
  y2 solubility in ScCO2 (mole fraction): 0.0814 y2 × 10^4 (mole fraction)
  solubility thermodynamic at 60 min: 64.3 µg/mL (≈ 143 µM)
[1]; [4]
  y2 solubility in ScCO2 (mole fraction): 0.1266 y2 × 10^4 (mole fraction)
  solubility thermodynamic at 60 min: 106 µg/mL (≈ 235 µM)
[1]; [5]
  y2 solubility in ScCO2 (mole fraction): 0.1327 y2 × 10^4 (mole fraction)
  solubility thermodynamic at 60 min: 116 µg/mL (≈ 256 µM)
[1]; [6]
  y2 solubility in ScCO2 (mole fraction): 0.1411 y2 × 10^4 (mole fraction)
  solubility thermodynamic at 60 min: 126 µg/mL (≈ 281 µM)
[1]; [7]
  y2 solubility in ScCO2 (mole fraction): 0.1501 y2 × 10^4 (mole fraction)
  solubility thermodynamic at 60 min: 138 µg/mL (≈ 306 µM)
[1]; [8]
  y2 solubility in ScCO2 (mole fraction): 0.1806 y2 × 10^4 (mole fraction)
  solubility thermodynamic at 60 min: 169 µg/mL (≈ 375 µM)
[1]; [9]
  y2 solubility in ScCO2 (mole fraction): 0.0706 y2 × 10^4 (mole fraction)
  solubility thermodynamic at 60 min: 47.9 µg/mL (≈ 106 µM)
[1]; [10]
  y2 solubility in ScCO2 (mole fraction): 0.1182 y2 × 10^4 (mole fraction)
  solubility thermodynamic at 60 min: 90.1 µg/mL (≈ 200 µM)
[1]; [11]
  y2 solubility in ScCO2 (mole fraction): 0.1515 y2 × 10^4 (mole fraction)
  solubility thermodynamic at 60 min: 123 µg/mL (≈ 272 µM)
[1]; [12]
  y2 solubility in ScCO2 (mole fraction): 0.1601 y2 × 10^4 (mole fraction)
  solubility thermodynamic at 60 min: 135 µg/mL (≈ 300 µM)
[1]; [13]
  y2 solubility in ScCO2 (mole fraction): 0.2040 y2 × 10^4 (mole fraction)
  solubility thermodynamic at 60 min: 181 µg/mL (≈ 402 µM)
[1]; [14]
  y2 solubility in ScCO2 (mole fraction): 0.2079 y2 × 10^4 (mole fraction)
  solubility thermodynamic at 60 min: 186 µg/mL (≈ 412 µM)
[1]; [15]
  y2 solubility in ScCO2 (mole fraction): 0.0611 y2 × 10^4 (mole fraction)
  solubility thermodynamic at 60 min: 31.9 µg/mL (≈ 70.7 µM)
[1]; [16]
  y2 solubility in ScCO2 (mole fraction): 0.1044 y2 × 10^4 (mole fraction)
  solubility thermodynamic at 60 min: 70.2 µg/mL (≈ 156 µM)
[1]; [17]
  y2 solubility in ScCO2 (mole fraction): 0.1620 y2 × 10^4 (mole fraction)
  solubility thermodynamic at 60 min: 120 µg/mL (≈ 267 µM)
[1]; [18]
  y2 solubility in ScCO2 (mole fraction): 0.1860 y2 × 10^4 (mole fraction)
  solubility thermodynamic at 60 min: 147 µg/mL (≈ 325 µM)
[1]; [19]
  y2 solubility in ScCO2 (mole fraction): 0.2248 y2 × 10^4 (mole fraction)
  solubility thermodynamic at 60 min: 185 µg/mL (≈ 410 µM)
[1]; [20]
  y2 solubility in ScCO2 (mole fraction): 0.2260 y2 × 10^4 (mole fraction)
  solubility thermodynamic at 60 min: 192 µg/mL (≈ 426 µM)
[1]; [21]
  y2 solubility in ScCO2 (mole fraction): 0.0514 y2 × 10^4 (mole fraction)
  solubility thermodynamic at 60 min: 20.4 µg/mL (≈ 45.2 µM)
[1]; [22]
  y2 solubility in ScCO2 (mole fraction): 0.0928 y2 × 10^4 (mole fraction)
  solubility thermodynamic at 60 min: 53 µg/mL (≈ 118 µM)
[1]; [23]
  y2 solubility in ScCO2 (mole fraction): 0.2002 y2 × 10^4 (mole fraction)
  solubility thermodynamic at 60 min: 134 µg/mL (≈ 297 µM)
[1]; [24]
  y2 solubility in ScCO2 (mole fraction): 0.2266 y2 × 10^4 (mole fraction)
  solubility thermodynamic at 60 min: 165 µg/mL (≈ 366 µM)
[1]; [25]
  y2 solubility in ScCO2 (mole fraction): 0.2637 y2 × 10^4 (mole fraction)
  solubility thermodynamic at 60 min: 203 µg/mL (≈ 450 µM)
[1]; [26]
  y2 solubility in ScCO2 (mole fraction): 0.2590 y2 × 10^4 (mole fraction)
  solubility thermodynamic at 60 min: 208 µg/mL (≈ 461 µM)
[1]; ScCO2, isotherms 308 to 338 K
  cross over region of the solubility isotherms: 16.5 MPa
[2]; obtained with Bartle et al. model
  Enthalpy of sublimation, ΔHsub: ~49.653^c (approximate value) kJ/mol
[2]; obtained with Chrastil model
  Total entalpy, ΔHtotal: 30.548^a kJ/mol
[2]; obtained with Reformulated Chrastil model
  Total entalpy, ΔHtotal: 22.496^b kJ/mol
